From patent US20080249303A1 (WYETH, priority 2007, published 2008)

Legend:
[1] = Bazedoxifene acetate recovery in different extraction media, XRD peak area after tablet extraction; format: physicochemical; settings: XRD peak at 12.8° (Form A)
[2] = as above; format: physicochemical; settings: 1.0 mL/tablet, XRD peak at 12.8° (Form A)
Procedure: The coatings of three of the tablets were removed. The resulting tablets were then placed in a small beaker. About 3.0 ml of extraction medium solution was added to the beaker to produce a mixture. The mixture was broken up and stirred for about 5 to about 15 minutes. The resulting mixture was filtered and washed with an additional 3.0 ml of extraction medium solution three times to produce a solid (filtrand). The recovered solid was dried at about 40° C. overnight. The dried solid was grinded and pressed into pellets for XRD measurement. This procedure can be scaled up or down for various quantities of BZA tablets. This procedure was employed for the samples found in Table 1.
X-Ray Powder Diffraction analyses were carried out on samples prepared according to Examples 1 and 2 using a Bruker D8 Discover X-ray diffractometer with GADDS. The diffractometer power was set at 40 kV and 40 mA. The collimator diameter of the instrument was about 0.8 mm and the detector-to-sample distance was set at about 30 cm. The X-ray incident angle relative to the pellet/tablet surface was about 40 and the detection angle relative to the pellet/tablet surface was about 16±0.2°. Data were collected at about 120 minutes to about 240 minutes.
The following table illustrates the results of experiments using the extraction methods of Example 1. The extractions were performed using different extraction media and the results were measured in terms of peak area of bazedoxifene using XRD as described in Example 3.

With `Cc1c(-c2ccc(O)cc2)n(Cc2ccc(OCCN3CCCCCC3)cc2)c2ccc(O)cc12` [Bazedoxifene acetate, 1-[4-(2-azepan-1-yl-ethoxy)-benzyl]-2-(4-hydroxy-phenyl)-3-methyl-1H-indol-5-ol acetic acid] the “Peak Area of Bazedoxifene” value ([1]; Experiment 1, Millipore Water, pH 5.9, 2.50 mL/tablet) was 3.3 count · degree, the “Peak Area of Bazedoxifene” value ([1]; Experiment 2, Millipore Water, pH 5.9, 1.67 mL/tablet) was 4.9 count · degree and the “Peak Area of Bazedoxifene” value ([1]; Experiment 3, Diluted Acetic Acid, pH 1.96, 2.50 mL/tablet) was “No Detection”. For the same molecule, the “Peak Area of Bazedoxifene” value ([1]; Experiment 5, Millipore Water, pH 5.9, 0.83 mL/tablet) was 11.6 count · degree, the “Peak Area of Bazedoxifene” value ([2]; Experiment 6, 0.50 M Ammonium Acetate, pH 6.20) was 22.7 count · degree and the “Peak Area of Bazedoxifene” value ([2]; Experiment 7, 0.125 M Ammonium Acetate + 0.375 M Sodium Acetate, pH 6.85) was 23.1 count · degree. The “Peak Area of Bazedoxifene” value ([2]; Experiment 8, 0.05 M Ammonium Acetate + 0.45 M Sodium Acetate, pH 7.18) was 32.0 count · degree, the “Peak Area of Bazedoxifene” value ([2]; Experiment 9, 0.50 M Sodium Acetate, pH 8.34) was 36.2 count · degree and the “Peak Area of Bazedoxifene” value ([2]; Experiment 10, 0.50 M Sodium Chloride, pH 9.20 adjusted by Sodium Hydroxide) was 21.8 count · degree.
